Read-outs that look alike come from different tables or passages of the source.
Tests used:
[1] = target: DCN1 (DCUND1) protein PONY domain (Homo sapiens (Human), UniProt Q96GG9); experiment: TR-FRET assay, DCN1 binding with FAM-labeled probe
Summary of the method: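 First, the E. coli-derived PONY domain was biotinylated and paired with streptavidin Tb cryptate. Compounds in 0.1% DMSO were then added to DCN1 and FAM-probe (5 nM/20 nM, or 0.31 nM/900 nM total with 800 nM unlabelled) in TritonX, 200 mM NaCl buffer. Finally, TR-FRET ratios were recorded at 1, 5 and 24 hrs.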

[2] = system: Cullin-3 (CUL3) neddylation; experiment: AlphaLISA assay for Cullin-3 (CUL3) neddylation in TF 1 cells; type: cell-based; conditions: Homo sapiens, TF-1, 3 h, 3 hours treatment
Summary of the method: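 Neddylated CUL3 was quantified by AlphaLISA in lysates of TF 1 cells exposed for 3 h to test compound in IMDM without supplements. Percent inhibition set between vehicle and 1 μM DI-1548 positive control; IC50 derived by Hill-equation fitting of dose-response curves.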

[3] = system: fetal hemoglobin gene HBG1; experiment: HBG1 Nanostring Assay in CD34+ HSPC erythroid differentiation culture; type: cell-based, human; conditions: for EC50: Homo sapiens, 240 h, HBG1 induction, Day10 of erythroid differentiation; for Nanostring Ymax obs (%): relative to a control compound (C1)
Summary of the method: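 HBG1 counts came from direct nCounter hybridization (67° C, 22 h) of day-10 lysates, normalized to ERCC positive controls and a housekeeping gene, giving EC50 and Ymax versus a reference compound. Compounds in 0.1% DMSO were present from day −2 while cells underwent EPO/SCF/IL-3 erythroid differentiation, with IL-3 dropped at day 7, at 37° C.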

DCN1 protein = DCN1 protein (Homo sapiens (Human), UniProt Q96GG9); experiment: Intact Protein MS Analysis with the RapidFire-TOF System (covalent adduct formation); type: binding; conditions: MS Emax; 400 nM DCN1, 3 hours at room temperature
Sequence of DCN1 protein (Q96GG9 whole entry): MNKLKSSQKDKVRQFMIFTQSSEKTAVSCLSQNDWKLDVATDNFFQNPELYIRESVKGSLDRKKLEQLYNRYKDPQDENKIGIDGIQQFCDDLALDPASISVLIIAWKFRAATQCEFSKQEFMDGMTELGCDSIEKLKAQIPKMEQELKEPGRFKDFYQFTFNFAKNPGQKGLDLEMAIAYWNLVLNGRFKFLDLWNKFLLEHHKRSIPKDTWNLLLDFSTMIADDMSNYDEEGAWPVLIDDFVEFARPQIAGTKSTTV
Summary of the method: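 Tag-cleaved human DCN1 (400 nM) expressed in E. coli, in 25 mM Tris-HCl, 200 mM NaCl, 1 mM DTT, was incubated with 11 compound concentrations for 3 h at room temperature and quenched with 0.2% formic acid. Intact-protein Q-TOF MS with deconvolution detected the compound adduct mass.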

[4] = 24 hr after treatment with compound, read-out: TR FRET IC50 24 hr
[5] = read-out: TR FRET IC50 1 hr, 1 hr after treatment with compound
[6] = TR FRET IC50 1 hr (nM), 1 hr after treatment with compound

Sequence of DCN1 (DCUND1) protein PONY domain (Q96GG9 60-248): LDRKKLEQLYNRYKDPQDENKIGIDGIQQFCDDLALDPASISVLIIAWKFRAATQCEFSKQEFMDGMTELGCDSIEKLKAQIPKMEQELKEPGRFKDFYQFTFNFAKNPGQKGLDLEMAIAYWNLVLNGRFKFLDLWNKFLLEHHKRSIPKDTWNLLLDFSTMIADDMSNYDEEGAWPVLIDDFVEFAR

Compound: C/C=C/C(=O)Nc1nn(-c2ccccc2)c2c1[C@H](c1ccc(F)cc1)[C@H](NC(=O)c1cccc(C(F)(F)F)c1)C(=O)N2CC (racemic) [Compound I-62]
- IC50 [1, 4]: 200 to 1000 nM
- IC50 [1, 5]: ≤ 200 nM
- IC50 [2]: 100 to 1000 nM
- EC50 [3]: > 1000 nM
- Nanostring Ymax obs (%) [3]: + (Nanostring Ymax greater than or equal to 0.0 and less than or equal to 50.0)
- % Adduct Formation (DCN1 protein): + (MS Emax % adduct formation greater than or equal to 0.0 and less than or equal to 30.0)

Compound: C=C(C(=O)OCC)c1nn(-c2ccccc2)c2c1[C@H](c1ccc(F)cc1)[C@H](NC(=O)c1cccc(C(F)(F)F)c1)C(=O)N2CC (racemic) [Compound I-35, rac-ethyl 2-((4R,5R)-7-ethyl-4-(4-fluorophenyl)-6-oxo-1-phenyl-5-(3-(trifluoromethyl)benzamido)-4,5,6,7-tetrahydro-1H-pyrazolo[3,4-b]pyridine-3-yl)acrylate]
- IC50 [1, 4]: ≤ 200 nM
- IC50 [1, 6]: > 3000 nM
- IC50 [2]: 100 to 1000 nM
- EC50 [3]: 100 to 1000 nM
- Nanostring Ymax obs (%) [3]: + (Nanostring Ymax greater than or equal to 0.0 and less than or equal to 50.0)
- % Adduct Formation (DCN1 protein): + (MS Emax % adduct formation greater than or equal to 0.0 and less than or equal to 30.0)

Compound: CCN1C(=O)[C@@H](NC(=O)c2cccc(C(F)(F)F)c2)[C@@H](c2ccc(F)cc2)c2c(C(=O)N3CC[C@H](OC)[C@H]3C#N)nn(C3CCOCC3)c21 [Compound I-359]
- IC50 [1, 4]: ≤ 200 nM
- IC50 [1, 5]: ≤ 200 nM
- IC50 [2]: ≤ 100 nM
- EC50 [3]: ≤ 100 nM
- Nanostring Ymax obs (%) [3]: +++ (Nanostring Ymax greater than 100.0)
- % Adduct Formation (DCN1 protein): +++ (MS Emax % adduct formation greater than 80.0 and less than or equal to 100.0)

Compound: CCN1C(=O)[C@@H](NC(=O)c2cccc(C(F)(F)F)c2)[C@@H](c2ccc(F)cc2)c2c(C(=O)N3C[C@H](F)C[C@H]3C#N)nn(-c3ccccc3)c21 (mixture of isomers) [Compound I-273]
- IC50 [1, 4]: ≤ 200 nM
- IC50 [1, 5]: ≤ 200 nM
- IC50 [2]: ≤ 100 nM
- Nanostring Ymax obs (%) [3]: +++ (Nanostring Ymax greater than 100.0)
- % Adduct Formation (DCN1 protein): +++ (MS Emax % adduct formation greater than 80.0 and less than or equal to 100.0)

Compound: CCN1C(=O)[C@@H](NC(=O)c2cccc(C(F)(F)F)c2)[C@@H](c2ccc(F)cc2)c2c(C(=O)N3C[C@H](OC)C[C@H]3C#N)nn(C3CCOCC3)c21 [Compound I-358]
- IC50 [1, 4]: ≤ 200 nM
- IC50 [1, 5]: ≤ 200 nM
- IC50 [2]: ≤ 100 nM
- EC50 [3]: ≤ 100 nM
- Nanostring Ymax obs (%) [3]: +++ (Nanostring Ymax greater than 100.0)
- % Adduct Formation (DCN1 protein): +++ (MS Emax % adduct formation greater than 80.0 and less than or equal to 100.0)

Compound: CCN1C(=O)[C@@H](NC(=O)c2cccc(C(F)(F)F)c2)[C@H](c2ccc(F)cc2)c2c(CNC(=O)C3=C(C(=O)OC)CC3)nn(-c3ccccc3)c21 (racemic) [Compound I-97]
- IC50 [1, 4]: 200 to 1000 nM
- IC50 [1, 5]: ≤ 200 nM
- IC50 [2]: ≤ 100 nM
- EC50 [3]: 100 to 1000 nM
- Nanostring Ymax obs (%) [3]: ++ (Nanostring Ymax greater than 50.0 and less than or equal to 100.0)
- % Adduct Formation (DCN1 protein): + (MS Emax % adduct formation greater than or equal to 0.0 and less than or equal to 30.0)

Compound: CC#CC(=O)Nc1nn(-c2ccccc2)c2c1[C@H](c1ccc(F)cc1)[C@H](NC(=O)c1cccc(C(F)(F)F)c1)C(=O)N2CC (racemic) [Compound I-51]
- IC50 [1, 4]: 200 to 1000 nM
- IC50 [1, 6]: 200 to 1000 nM
- IC50 [2]: 100 to 1000 nM
- EC50 [3]: 100 to 1000 nM
- Nanostring Ymax obs (%) [3]: +++ (Nanostring Ymax greater than 100.0)
- % Adduct Formation (DCN1 protein): + (MS Emax % adduct formation greater than or equal to 0.0 and less than or equal to 30.0)

Compound: CCN1C(=O)[C@@H](NC(=O)c2cccc(C(F)(F)F)c2)[C@@H](c2ccc(F)cc2)c2c(C(=O)N3CCC[C@H]3C#N)nn(C3CCOCC3)c21 (mixture of isomers) [Compound I-292]
- IC50 [1, 4]: ≤ 200 nM
- IC50 [1, 5]: ≤ 200 nM
- IC50 [2]: ≤ 100 nM
- EC50 [3]: ≤ 100 nM
- Nanostring Ymax obs (%) [3]: +++ (Nanostring Ymax greater than 100.0)
- % Adduct Formation (DCN1 protein): +++ (MS Emax % adduct formation greater than 80.0 and less than or equal to 100.0)

Compound: C=CC(=O)N(C)Cc1nn(-c2ccccc2)c2c1[C@H](c1ccc(F)cc1)[C@H](NC(=O)c1cccc(C(F)(F)F)c1)C(=O)N2CC (racemic) [Compound I-29]
- IC50 [1, 4]: 1000 to 3000 nM
- IC50 [1, 6]: 1000 to 3000 nM
- IC50 [2]: > 1000 nM
- EC50 [3]: > 1000 nM
- Nanostring Ymax obs (%) [3]: + (Nanostring Ymax greater than or equal to 0.0 and less than or equal to 50.0)
- % Adduct Formation (DCN1 protein): + (MS Emax % adduct formation greater than or equal to 0.0 and less than or equal to 30.0)

Compound: CCN1C(=O)[C@@H](NC(=O)c2cccc(C(F)(F)F)c2)[C@@H](c2ccc(F)cc2)c2c(C(=O)N3CCNC[C@@H]3C#N)nn(C3CCOCC3)c21 [Compound I-364]
- IC50 [1, 4]: ≤ 200 nM
- IC50 [1, 5]: ≤ 200 nM
- IC50 [2]: ≤ 100 nM
- EC50 [3]: ≤ 100 nM
- Nanostring Ymax obs (%) [3]: ++ (Nanostring Ymax greater than 50.0 and less than or equal to 100.0)
- % Adduct Formation (DCN1 protein): +++ (MS Emax % adduct formation greater than 80.0 and less than or equal to 100.0)

Compound: C=C(CN1CCOCC1)C(=O)N[C@H](C)c1nn(-c2ccccc2)c2c1[C@H](c1ccc(F)cc1)[C@H](NC(=O)c1cccc(C(F)(F)F)c1)C(=O)N2CC (mixture of isomers) [Compound I-8]
- IC50 [1, 4]: ≤ 200 nM
- IC50 [1, 5]: ≤ 200 nM
- IC50 [2]: 100 to 1000 nM
- EC50 [3]: > 1000 nM
- Nanostring Ymax obs (%) [3]: ++ (Nanostring Ymax greater than 50.0 and less than or equal to 100.0)
- % Adduct Formation (DCN1 protein): + (MS Emax % adduct formation greater than or equal to 0.0 and less than or equal to 30.0)

Compound: C=C(C(=O)NCc1nn(-c2ccccc2)c2c1[C@@H](c1ccc(F)cc1)[C@H](NC(=O)c1cccc(C(F)(F)F)c1)C(=O)N2CC)C(C)N1CCOCC1 (mixture of isomers) [Compound I-88]
- IC50 [1, 4]: ≤ 200 nM
- IC50 [1, 5]: ≤ 200 nM
- IC50 [2]: ≤ 100 nM
- EC50 [3]: > 1000 nM
- Nanostring Ymax obs (%) [3]: + (Nanostring Ymax greater than or equal to 0.0 and less than or equal to 50.0)
- % Adduct Formation (DCN1 protein): + (MS Emax % adduct formation greater than or equal to 0.0 and less than or equal to 30.0)

Compound: CCN1C(=O)[C@@H](NC(=O)c2cccc(C(F)(F)F)c2)[C@@H](c2ccc(F)cc2)c2c(CNC(=O)CC#N)nn(-c3ccccc3)c21 (racemic) [Compound I-147, rac-N-((4R,5R)-3-((2-cyanoacetamido)methyl)-7-ethyl-4-(4-fluorophenyl)-6-oxo-1-phenyl-4,5,6,7-tetrahydro-1H-pyrazolo[3,4-b]pyridine-5-yl)-3-(trifluoromethyl)benzamide]
- IC50 [1, 4]: 200 to 1000 nM
- IC50 [1, 6]: 1000 to 3000 nM
- IC50 [2]: 100 to 1000 nM
- EC50 [3]: > 1000 nM
- Nanostring Ymax obs (%) [3]: + (Nanostring Ymax greater than or equal to 0.0 and less than or equal to 50.0)
- % Adduct Formation (DCN1 protein): + (MS Emax % adduct formation greater than or equal to 0.0 and less than or equal to 30.0)

Compound: CCN1C(=O)[C@@H](NC(=O)c2cccc(C(F)(F)F)c2)[C@@H](c2ccc(F)cc2)c2c(NC(=O)/C=C/C(=O)OC)nn(-c3ccccc3)c21 (racemic) [Compound I-136]
- IC50 [1, 6]: 200 to 1000 nM
- IC50 [2]: ≤ 100 nM
- EC50 [3]: > 1000 nM
- Nanostring Ymax obs (%) [3]: + (Nanostring Ymax greater than or equal to 0.0 and less than or equal to 50.0)
- % Adduct Formation (DCN1 protein): +++ (MS Emax % adduct formation greater than 80.0 and less than or equal to 100.0)

Compound: CCN1C(=O)[C@@H](NC(=O)c2cccc(C(F)(F)F)c2)[C@@H](c2ccc(F)cc2)c2c(NC(=O)[C@@H](C)Cl)nn(-c3ccccc3)c21 (mixture of isomers) [Compound I-101]
- IC50 [1, 4]: 200 to 1000 nM
- IC50 [1, 6]: 200 to 1000 nM
- IC50 [2]: 100 to 1000 nM
- EC50 [3]: > 1000 nM
- Nanostring Ymax obs (%) [3]: ++ (Nanostring Ymax greater than 50.0 and less than or equal to 100.0)
- % Adduct Formation (DCN1 protein): + (MS Emax % adduct formation greater than or equal to 0.0 and less than or equal to 30.0)

Compound: CCN1C(=O)[C@@H](NC(=O)c2cccc(C(F)(F)F)c2)[C@@H](c2ccc(F)cc2)c2c(C(=O)N3C[C@H](F)C[C@H]3C#N)nn(C3CCOCC3)c21 [Compound I-360]
- IC50 [1, 4]: ≤ 200 nM
- IC50 [1, 5]: ≤ 200 nM
- IC50 [2]: ≤ 100 nM
- EC50 [3]: ≤ 100 nM
- Nanostring Ymax obs (%) [3]: +++ (Nanostring Ymax greater than 100.0)
- % Adduct Formation (DCN1 protein): +++ (MS Emax % adduct formation greater than 80.0 and less than or equal to 100.0)

Reference: US20250163057A1, “DCN-1 MODULATING COMPOUNDS AND METHODS OF USE THEREOF” (Cellarity, Inc., priority 2023, published 2025)
